Where a name gives a salt, the structure may show the parent alone. Read-outs that look alike come from different tables or passages of the source.
Assays:
[1] = for Endothermous solid phase transformation: 30-300° C. under helium; for Endothermous solid phase transformation / Disintegration temperature: sodium salt; for Disintegration temperature: 30-500° C. in synthetic air (4 N2: 1 O2)
Protocol: (Table 5). The solid phase transformation of the dihydrate according to U.S. Pat. No. 6,483,326 B1 was measured by means of the simultaneous thermogravimetry-differential thermal analysis with a Linseis L81-077 coupled with mass spectroscopy measurement with a Netzsch STA 449 C thermobalance, with MS and FTIR coupling at 30-300° C. under helium. The disintegration temperatures of forms I-II were determined with the same device at 30-500° C. in synthetic air (4 N2: 1 O2). The data were analyzed with the factory-set software Proteus.

physchem = settings: in water at room temperature, saturated solution
Protocol: Further, the solubility of the crystalline forms in a saturated solution was determined.

[2] = test system: isolated mouse macrophages
Protocol: For this purpose, the macrophages were first treated with form I (20 or 200 μg/mL). After 1 hour the treated macrophages were stimulated with LPS (10, 100 or 1,000 ng/mL). The supernatants were collected 24 h later, and the concentration of TNF-alpha and IL-6 was measured. Not stimulated macrophages, not stimulated macrophages treated with 200 μg/mL form I and LPS-stimulated macrophages (10, 100 or 1,000 ng/mL LPS) were used as controls.

[3] = not infected mice; for Weight development/increase MW: over two days
Protocol: (§1) In a mouse model of the Gram-positive sepsis (infection with S. pyogenes) the therapeutic usability of the crystal forms I and II of the 5-amino-2,3-dihydrophthalazine-1,4-dione sodium salt was tested. The administration of active ingredient was made parenterally 6 hours after the infection occurred. A second administration of active ingredient was made 24 hours after the first application. The test was completed 48 hours after the infection. For both forms (substance groups) three different doses were used. The mice obtained 2, 20 or 200 μg each of form I or form II per animal and application.
(§2) The individual treatment groups comprised 5 animals each, and for the not infected controls two repetitions and for the infected controls and that groups that contained form II four repetitions were made, so that in total 180 animals were in the test.
It is known that the toxicity of substances in an animal test with growing-up mice or rate can influence the weight development.

S. pyogenes [4] = settings: for Weight development/increase Total MW / Weight development/increase Day 1 MW: infected mice, sodium salt; for Weight development/increase Total MW: complete test time 48 h, survivors
Protocol: as §1, §2
In the sepsis model described in Example 3, the influence of crystal forms I and II of the 5-amino-2,3-dihydrophthalazine-1,4-dione sodium salt on the weight development of mice infected with S. pyogenes was tested. The development of the body weight during an acute infection may supply important predictive information.

S. pyogenes [5] = settings: 48 hours after the infection
Protocol: as §1, §2
In the sepsis model described in Example 3, the influence the crystal forms II and I of the 5-amino-2,3-dihydrophthalazine-1,4-dione sodium, salt on the probability of survival of the mice infected with S. pyogenes was tested.

S. pyogenes [6] = settings: for Germ load (CFU) Blood MW / Germ load (CFU) Liver MW: 48 hours after the infection, sodium salt
Protocol: as §1, §2
In the sepsis model described in Example 3, the influence of crystal forms II and I of the 5-amino-2,3-dihydrophthalazine-1,4-dione sodium salt on the germ load of the mice infected with S. pyogenes in blood and liver was tested. The test was completed 48 hours after the infection, and the germ load (CFU) existing at this time in blood and liver was determined (see Table).

[7] = healthy mice
Protocol: as §1
Blood taking occurred after 48 hours at the end of the second application day.

[8] = healthy mice, end of the second application day
From the text: When administering form I and form II to healthy mice, it was investigated, whether and which influence the application has on certain liver enzymes, in particular the transaminases GOT (AST) and GPT (ALT). Blood taking occurred at the end of the second application day.

[9] = 0.25 g in 10 mL H2O VE, stirring 500 rpm, 25° C., first minutes after addition; sodium salt
Protocol: The complete dissolution of 0.25 g form I or form II, respectively, in 10 mL H2O VE was achieved under stirring (500 rpm) at 25° C.

[10] = 200 μg/mL, not stimulated macrophages (no LPS)
[11] = dose 20 μg, LPS 10 ng/mL, supernatant 24 h
[12] = dose 20 μg, LPS 100 ng/mL, supernatant 24 h
[13] = dose 20 μg, LPS 1 mg/mL, supernatant 24 h
[14] = dose 200 μg, LPS 10 ng/mL, supernatant 24 h
[15] = dose 200 μg, LPS 100 ng/mL, supernatant 24 h
[16] = dose 200 μg, LPS 1 mg/mL, supernatant 24 h

Nc1cccc2c(=O)[nH][nH]c(=O)c12 [Dihydrate, 5-amino-2,3-dihydrophthalazine-1,4-dione sodium salt]
Endothermous solid phase transformation ([1]; listed as dihydrate): 85 °C
Endothermous solid phase transformation [1]: 85 °C ± 10 °C
Solubility (physchem; sodium salt): 168 mg/mL

Nc1cccc2c(=O)[nH][nH]c(=O)c12 [Form I, 5-amino-2,3-dihydrophthalazine-1,4-dione sodium salt]
Disintegration temperature ([1]; listed as form I): 335 °C
Disintegration temperature [1]: 335 °C ± 10 °C
Time for which the crystalline form is stable ([1]; room temperature (25° C.) and 40° C.): at least two
Solubility (physchem; water, thermodynamic from solid, Solubility): 227 mg/mL
Immunodepressive effect ([2]; 100 ng/5 mL LPS, 200 μg/mL): most distinct
Change of TNF-alpha values ([2]; 1 μg/mL LPS with 200 μg/mL): significant reduction
Effect on not stimulated macrophages by TNF-alpha values ([2]; 200 μg/mL, not stimulated): immunostimulating effect
IL-6 MW [2, 10]: 0.24 ng/mL
TNF-alpha MW [2, 10]: 7.98 ng/mL
Effect in the combination groups with LPS ([2]; all LPS groups): dose-dependent, immunodepressive effect
IL-6 MW [2, 11]: 6.05 ng/mL
TNF-alpha MW [2, 11]: 13.27 ng/mL
IL-6 MW [2, 12]: 19.67 ng/mL
TNF-alpha MW [2, 12]: 27.17 ng/mL
IL-6 MW [2, 13]: 22.67 ng/mL
TNF-alpha MW [2, 13]: 47.91 ng/mL
IL-6 MW [2, 14]: 7.19 ng/mL
TNF-alpha MW [2, 14]: 20.74 ng/mL
IL-6 MW [2, 15]: 10.88 ng/mL
TNF-alpha MW [2, 15]: 16.47 ng/mL
IL-6 MW [2, 16]: 15.95 ng/mL
TNF-alpha MW [2, 16]: 32.53 ng/mL
Toxicity judged from weight development [3]: do not have any toxicity or at most a very small one
Weight development/increase MW ([3]; 2 μg per animal and application, parenteral, sodium salt): -0.49 g
Weight development/increase MW ([3]; 20 μg per animal and application, parenteral, sodium salt): 1.48 g
Weight development/increase MW ([3]; 200 μg per animal and application, parenteral, sodium salt): 0.79 g
Weight development/increase MW ([3]; all doses (total)): 0.59 g
Weight loss compared to control groups (S. pyogenes [4]; first 24 hours after the infection): lower weight losses
Weight development/increase Total MW (S. pyogenes [4]; 2 μg): -2.41 g
Weight development/increase Day 1 MW (S. pyogenes [4]; 2 μg): -0.64 g
Weight development/increase Total MW (S. pyogenes [4]; 20 μg): -1.46 g
Weight development/increase Day 1 MW (S. pyogenes [4]; 20 μg): -0.09 g
Weight development/increase Total MW (S. pyogenes [4]; 200 μg): -1.69 g
Weight development/increase Day 1 MW (S. pyogenes [4]; 200 μg): -0.03 g
Weight development/increase Total MW (S. pyogenes [4]; all doses (total)): -1.85 g
Weight development/increase Day 1 MW (S. pyogenes [4]; all doses (total)): -0.25 g
Share of surviving mice (S. pyogenes [5]; 2 μg, sodium salt): 80%
Share of surviving mice (S. pyogenes [5]; 20 μg): 80%
Share of surviving mice (S. pyogenes [5]; 200 μg, sodium salt): 80%
Survival compared to the controls (S. pyogenes [5]): increase of the share of surviving animals
Share of surviving mice (S. pyogenes [5]; all doses (total)): 80%
Germ load (CFU) Blood MW (S. pyogenes [6]; 2 μg): 7.00 log/mL
Germ load (CFU) Liver MW (S. pyogenes [6]; 2 μg): 6.56 log/g
Germ load (CFU) Blood MW (S. pyogenes [6]; 20 μg): 6.33 log/mL
Germ load (CFU) Liver MW (S. pyogenes [6]; 20 μg): 6.57 log/g
Germ load (CFU) Blood MW (S. pyogenes [6]; 200 μg): 5.77 log/mL
Germ load (CFU) Liver MW (S. pyogenes [6]; 200 μg): 6.09 log/g
Germ load (CFU) Blood MW (S. pyogenes [6]; all doses (total)): 6.37 log/mL
Germ load (CFU) Liver MW (S. pyogenes [6]; all doses (total)): 6.41 log/g
Germ count in the blood compared to the controls (S. pyogenes [6]; highest dose): tendentious germ count reduction
TNF-alpha MW ([7]; 2 μg, blood after 48 hours, sodium salt): 128.8 pg/mL
TNF-alpha versus control groups and form II groups ([7]; 20 μg dose, p<0.001): significantly different
TNF-alpha MW ([7]; 20 μg, blood after 48 hours, sodium salt): 341.8 pg/mL
TNF-alpha MW ([7]; 200 μg, blood after 48 hours, sodium salt): 154.1 pg/mL
TNF-alpha MW ([7]; all doses (total), blood after 48 hours, sodium salt): 208.2 pg/mL
IL-6 increase ([7]; blood after 48 hours): neither in the substance groups nor in the control groups increases could be found
TNF-alpha increase ([7]; compared to the other groups, sodium salt): distinct increases
Transaminases GOT (AST) and GPT (ALT) [8]: Distinct differences between the groups could not be found
Initial dissolution rate [9]: only retarded reaches its complete equilibrium concentration

— US9079863B2, “Crystalline forms for 5-amino-2,3-dihydrophthalazine-1,4-dione sodium salt, pharmaceutical preparations containing the same and method for the production of said forms” (METRIOPHARM AG, priority 2010, dated 2015)
